Test results reported in ChEMBL document CHEMBL1201862, “PubChem BioAssay data set” (2004).
One block for each compound: values may come before it. The source made the active and inactive calls.

Legend:
[1] = target: T1, Oxysterols receptor LXR-beta (Homo sapiens, UniProt P55055); assay type: functional, cell-based;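 also: Cell-based luminescence dose-response assay of agonist activity at LXR, run as a confirmatory counterscreen to a daf-12 agonist screen; HEK293 cells with Gal4-LXR fusion and GAL4-driven luciferase reporter; agonist potency from rising luciferase signal of a Gal4-LXR reporter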
T1 sequence (P55055 whole entry): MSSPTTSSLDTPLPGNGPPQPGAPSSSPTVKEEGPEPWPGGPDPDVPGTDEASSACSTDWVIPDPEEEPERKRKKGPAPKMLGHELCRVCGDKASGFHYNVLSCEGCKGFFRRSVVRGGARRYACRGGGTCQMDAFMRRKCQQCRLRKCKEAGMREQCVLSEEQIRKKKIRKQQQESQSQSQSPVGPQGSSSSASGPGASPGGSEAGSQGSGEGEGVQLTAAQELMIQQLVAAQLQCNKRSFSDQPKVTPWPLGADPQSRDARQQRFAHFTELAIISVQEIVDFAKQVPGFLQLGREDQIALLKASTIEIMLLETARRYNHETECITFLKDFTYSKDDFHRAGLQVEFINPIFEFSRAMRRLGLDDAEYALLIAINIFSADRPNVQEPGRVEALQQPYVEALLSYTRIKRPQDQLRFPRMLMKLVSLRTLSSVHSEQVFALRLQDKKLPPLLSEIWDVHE

Cysteine protease ATG4B = target: T2, Cysteine protease ATG4B (Homo sapiens, UniProt Q9Y4P1); assay type: functional;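 also: Fluorescence-based dose-response confirmation assay measuring inhibition of ATG4B activity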
T2 sequence (Q9Y4P1 whole entry): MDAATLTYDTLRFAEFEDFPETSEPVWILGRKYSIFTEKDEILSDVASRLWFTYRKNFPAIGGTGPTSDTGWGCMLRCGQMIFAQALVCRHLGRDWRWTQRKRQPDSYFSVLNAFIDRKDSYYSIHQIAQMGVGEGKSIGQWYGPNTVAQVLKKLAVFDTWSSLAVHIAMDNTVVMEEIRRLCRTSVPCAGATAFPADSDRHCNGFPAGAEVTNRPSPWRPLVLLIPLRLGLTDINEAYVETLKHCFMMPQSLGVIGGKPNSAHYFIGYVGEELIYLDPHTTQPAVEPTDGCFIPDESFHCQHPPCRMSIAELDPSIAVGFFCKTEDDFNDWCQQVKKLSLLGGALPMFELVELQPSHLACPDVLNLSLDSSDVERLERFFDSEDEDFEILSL

Phospholipase A2 = Phospholipase A2 (Homo sapiens, UniProt P04054); assay type: functional;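 also: confirmatory dose-response counterscreen on phospholipase A2, testing hits that came from an ultra-high-throughput screen for ATG4B inhibitors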
Genome polyprotein = Genome polyprotein (dengue virus type 2, UniProt P29990); assay: flavivirus cap methylation enzyme inhibition – biochemical, confirmation dose response, primary screen (AID 588689); assay type: functional
Cytochrome P450 3A4 [2] = target: T3, Cytochrome P450 3A4 (Homo sapiens, UniProt P08684);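 also: CYP3A4 tested as one member of a cytochrome P450 panel screen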
[3] = blockers of HIV-1 envelope-mediated cell-cell fusion – cherry-pick, dose response (AID 652057); assay type: functional, cell-based
[4] = blockers of HIV-1 ZM109 envelope-driven cell-cell fusion – HeLa effector, CEM target cells, luciferase, cherry-pick, dose response (AID 652058); assay type: functional, cell-based;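 also: luciferase signal from HIV-1 Env mediated cell-cell fusion of effector and target cells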
[5] = HIV-1 AD8 envelope cell-cell fusion blockers – cherry-pick, dose response (AID 652062); assay type: functional, cell-based;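 also: luciferase signal from cell-cell fusion driven by HIV-1 clade B AD8 Env; potency is for inhibitors of fusion seen as a drop in luminescence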
[6] = off-target signal loss in HeLa-CEM21 co-culture – HeLa F-luc CTL cells, cherry-picked, counter-screen for HIV-1 Env fusion inhibitor project, dose response (AID 652040); assay type: functional, cell-based;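 also: potency for signal decrease marking cytotoxic or nonspecific inhibition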
Paired box protein Pax-8 = Paired box protein Pax-8 (Homo sapiens, UniProt Q06710); assay: PAX8 transcriptional activity inhibition in RMG-I – RMG-I cells, luciferase, cherry-pick, dose response (AID 687027); assay type: functional, cell-based;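 also: luciferase reporter driven by Pax8 target thyroperoxidase promoter measured by SteadyGlo luminescence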
[7] = OVCAR8 cell viability loss – plate reader, dry powder samples, PAX8 project, dose response (AID 743197); assay type: functional, cell-based; settings: OVCAR-8
[8] = target: T4, Carboxy-terminal domain RNA polymerase II polypeptide A small phosphatase 1 (Homo sapiens, UniProt Q9GZU7); assay: CTDSP1 inhibitors, concentration-response, biochemical, absorbance readout, ultra-high-throughput screen actives (AID 540297); assay type: functional
T4 sequence (Q9GZU7 whole entry): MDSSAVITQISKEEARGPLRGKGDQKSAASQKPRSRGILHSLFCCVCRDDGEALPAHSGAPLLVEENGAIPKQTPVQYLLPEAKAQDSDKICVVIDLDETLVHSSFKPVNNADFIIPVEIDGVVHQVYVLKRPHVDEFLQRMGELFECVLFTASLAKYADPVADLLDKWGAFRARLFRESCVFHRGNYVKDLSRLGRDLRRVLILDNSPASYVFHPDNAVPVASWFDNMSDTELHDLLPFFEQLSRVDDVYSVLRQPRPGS

Cytochrome P450 2C9 = Cytochrome P450 2C9 (Homo sapiens, UniProt P11712)
Cytochrome P450 2D6 = Cytochrome P450 2D6 (Homo sapiens, UniProt P10635);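 also: CYP2D6 member of a cytochrome P450 panel assay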
[9] = target: T5, Rac GTPase-activating protein 1 (Homo sapiens, UniProt Q9H0H5); assay: blockers of MgcRacGAP-driven Rac1 GTP hydrolysis – biochemical, ADP Hunter fluorescence, primary and confirmatory, confirmation (AID 624330); assay type: functional
T5 sequence (Q9H0H5 whole entry): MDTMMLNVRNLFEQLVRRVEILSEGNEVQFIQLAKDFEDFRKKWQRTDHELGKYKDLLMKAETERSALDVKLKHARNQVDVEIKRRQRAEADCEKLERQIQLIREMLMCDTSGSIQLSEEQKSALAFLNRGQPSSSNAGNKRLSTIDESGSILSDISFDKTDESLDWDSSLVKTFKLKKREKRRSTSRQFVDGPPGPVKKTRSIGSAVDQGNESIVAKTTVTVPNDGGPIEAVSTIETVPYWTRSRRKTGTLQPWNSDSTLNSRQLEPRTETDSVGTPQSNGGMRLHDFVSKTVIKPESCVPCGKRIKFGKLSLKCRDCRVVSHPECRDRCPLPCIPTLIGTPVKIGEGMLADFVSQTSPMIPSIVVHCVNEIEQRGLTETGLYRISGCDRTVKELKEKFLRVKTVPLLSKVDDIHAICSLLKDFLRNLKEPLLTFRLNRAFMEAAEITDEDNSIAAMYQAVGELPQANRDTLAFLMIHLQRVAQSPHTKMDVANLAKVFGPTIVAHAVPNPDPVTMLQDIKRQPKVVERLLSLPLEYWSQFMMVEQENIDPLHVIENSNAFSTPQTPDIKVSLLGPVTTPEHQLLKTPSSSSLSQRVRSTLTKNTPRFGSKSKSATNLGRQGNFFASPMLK

Cytochrome P450 3A4 [10] = target: T3, Cytochrome P450 3A4; remark: listed apart in the source
Cytochrome P450 2C19 = Cytochrome P450 2C19 (Homo sapiens, UniProt P33261); assay: Cytochrome panel assay with activity outcomes. Panel member name: p450-cyp2c19 Compounds with AC50 equal or less than 10 uM are considered active; assay type: functional; settings: read-out: AC50
Cytochrome P450 2C19, sequence (P33261 whole entry): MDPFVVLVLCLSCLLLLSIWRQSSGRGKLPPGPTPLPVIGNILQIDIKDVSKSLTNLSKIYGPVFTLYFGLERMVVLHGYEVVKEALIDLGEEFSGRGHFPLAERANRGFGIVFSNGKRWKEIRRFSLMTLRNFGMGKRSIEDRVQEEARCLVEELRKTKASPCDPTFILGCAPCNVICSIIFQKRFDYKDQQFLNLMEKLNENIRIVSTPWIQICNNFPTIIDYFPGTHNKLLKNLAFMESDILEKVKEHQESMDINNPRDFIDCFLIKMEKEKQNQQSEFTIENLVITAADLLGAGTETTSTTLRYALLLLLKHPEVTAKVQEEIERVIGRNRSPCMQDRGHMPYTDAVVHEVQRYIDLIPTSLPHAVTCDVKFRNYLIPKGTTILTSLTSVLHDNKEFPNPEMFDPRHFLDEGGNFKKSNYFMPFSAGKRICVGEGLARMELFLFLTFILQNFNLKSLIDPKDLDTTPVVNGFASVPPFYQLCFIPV

Paired box protein Pax-8, sequence (Q06710 whole entry): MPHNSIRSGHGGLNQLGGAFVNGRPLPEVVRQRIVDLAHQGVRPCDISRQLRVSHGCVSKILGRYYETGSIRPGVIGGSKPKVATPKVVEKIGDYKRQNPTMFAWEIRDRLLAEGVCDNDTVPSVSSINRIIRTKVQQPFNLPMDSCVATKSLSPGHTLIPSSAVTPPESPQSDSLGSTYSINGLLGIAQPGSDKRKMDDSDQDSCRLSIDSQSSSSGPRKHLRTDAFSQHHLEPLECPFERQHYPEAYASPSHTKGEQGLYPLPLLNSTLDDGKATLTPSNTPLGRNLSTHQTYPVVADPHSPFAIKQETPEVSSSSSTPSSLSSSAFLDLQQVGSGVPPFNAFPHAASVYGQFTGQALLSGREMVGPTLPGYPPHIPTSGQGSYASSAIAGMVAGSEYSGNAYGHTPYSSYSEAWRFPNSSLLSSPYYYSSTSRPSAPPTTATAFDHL
T3 sequence (P08684 whole entry, the tested form may be a part): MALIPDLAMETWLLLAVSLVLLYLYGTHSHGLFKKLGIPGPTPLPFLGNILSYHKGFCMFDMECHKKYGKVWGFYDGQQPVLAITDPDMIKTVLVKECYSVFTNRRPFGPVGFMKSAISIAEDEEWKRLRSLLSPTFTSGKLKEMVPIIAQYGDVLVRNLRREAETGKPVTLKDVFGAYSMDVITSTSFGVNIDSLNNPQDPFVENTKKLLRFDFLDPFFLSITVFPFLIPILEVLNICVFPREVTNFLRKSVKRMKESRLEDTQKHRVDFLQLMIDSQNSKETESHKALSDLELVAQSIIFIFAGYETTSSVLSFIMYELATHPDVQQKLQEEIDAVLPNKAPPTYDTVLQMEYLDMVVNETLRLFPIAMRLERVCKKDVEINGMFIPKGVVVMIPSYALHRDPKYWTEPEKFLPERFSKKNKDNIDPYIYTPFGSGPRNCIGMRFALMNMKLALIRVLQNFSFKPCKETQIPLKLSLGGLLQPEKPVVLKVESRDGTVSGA
Phospholipase A2, sequence (P04054 whole entry): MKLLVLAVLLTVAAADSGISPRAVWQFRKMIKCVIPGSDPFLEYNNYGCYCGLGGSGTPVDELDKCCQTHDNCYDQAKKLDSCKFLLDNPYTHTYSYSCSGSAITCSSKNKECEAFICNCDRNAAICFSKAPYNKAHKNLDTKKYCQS
Cytochrome P450 2D6, sequence (P10635 whole entry): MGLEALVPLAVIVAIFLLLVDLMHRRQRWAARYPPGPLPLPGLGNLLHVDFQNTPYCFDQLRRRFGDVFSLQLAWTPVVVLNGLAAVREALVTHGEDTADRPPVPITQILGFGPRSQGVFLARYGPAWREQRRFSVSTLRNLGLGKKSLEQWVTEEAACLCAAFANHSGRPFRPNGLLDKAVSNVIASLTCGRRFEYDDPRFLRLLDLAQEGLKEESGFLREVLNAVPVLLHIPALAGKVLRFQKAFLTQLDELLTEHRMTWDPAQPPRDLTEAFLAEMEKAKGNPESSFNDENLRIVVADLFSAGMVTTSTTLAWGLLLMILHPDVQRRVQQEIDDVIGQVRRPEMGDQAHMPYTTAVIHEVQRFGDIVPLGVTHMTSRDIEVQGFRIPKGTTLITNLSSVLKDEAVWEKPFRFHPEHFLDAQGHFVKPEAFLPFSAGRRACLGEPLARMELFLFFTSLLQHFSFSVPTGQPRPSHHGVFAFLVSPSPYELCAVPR
Genome polyprotein, sequence (P29990 2492-3391 limits assumed): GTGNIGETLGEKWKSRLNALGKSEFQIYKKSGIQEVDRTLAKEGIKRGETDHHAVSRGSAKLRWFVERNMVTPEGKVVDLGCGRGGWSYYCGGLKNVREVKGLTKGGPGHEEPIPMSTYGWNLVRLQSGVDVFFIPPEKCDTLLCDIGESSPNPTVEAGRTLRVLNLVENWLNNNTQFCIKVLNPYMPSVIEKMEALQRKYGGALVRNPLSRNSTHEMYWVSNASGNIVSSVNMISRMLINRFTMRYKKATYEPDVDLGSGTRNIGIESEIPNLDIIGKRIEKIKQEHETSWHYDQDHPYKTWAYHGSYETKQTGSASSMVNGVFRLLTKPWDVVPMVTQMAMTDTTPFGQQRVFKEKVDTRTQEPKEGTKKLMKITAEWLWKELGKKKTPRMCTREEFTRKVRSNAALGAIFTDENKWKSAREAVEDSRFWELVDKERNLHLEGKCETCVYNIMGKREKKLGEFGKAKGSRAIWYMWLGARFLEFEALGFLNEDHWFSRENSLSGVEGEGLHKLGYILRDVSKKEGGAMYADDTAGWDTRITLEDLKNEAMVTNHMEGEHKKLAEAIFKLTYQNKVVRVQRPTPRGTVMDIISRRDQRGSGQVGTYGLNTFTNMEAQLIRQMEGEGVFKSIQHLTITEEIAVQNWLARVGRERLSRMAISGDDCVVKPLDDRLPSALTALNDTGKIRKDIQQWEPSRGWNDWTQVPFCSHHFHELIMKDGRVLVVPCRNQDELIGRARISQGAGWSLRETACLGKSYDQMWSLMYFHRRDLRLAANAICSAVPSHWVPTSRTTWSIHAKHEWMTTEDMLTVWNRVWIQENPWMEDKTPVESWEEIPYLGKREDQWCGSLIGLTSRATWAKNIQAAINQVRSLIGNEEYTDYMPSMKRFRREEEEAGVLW
Cytochrome P450 2C9, sequence (P11712 whole entry): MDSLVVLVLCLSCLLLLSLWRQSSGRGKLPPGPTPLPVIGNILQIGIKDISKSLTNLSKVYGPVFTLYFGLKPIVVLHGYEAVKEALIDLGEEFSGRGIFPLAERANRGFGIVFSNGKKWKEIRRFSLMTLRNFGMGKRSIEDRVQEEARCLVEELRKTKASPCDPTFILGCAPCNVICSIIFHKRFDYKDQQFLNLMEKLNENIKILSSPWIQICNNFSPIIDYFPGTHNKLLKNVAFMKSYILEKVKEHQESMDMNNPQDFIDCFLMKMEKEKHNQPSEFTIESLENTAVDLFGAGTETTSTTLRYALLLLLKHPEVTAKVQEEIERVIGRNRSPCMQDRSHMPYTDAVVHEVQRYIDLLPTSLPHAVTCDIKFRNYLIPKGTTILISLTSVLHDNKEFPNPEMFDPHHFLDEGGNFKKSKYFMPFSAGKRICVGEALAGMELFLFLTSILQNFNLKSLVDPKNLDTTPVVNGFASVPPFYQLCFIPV

SMILES: O=C(COc1ccccc1Cl)Nc1ccc(Cl)cn1
EC50 (cells): > 67.5 µM (inactive)
EC50 [1]: > 67.5 µM (inactive)

SMILES: C=CCN([C@@H](CC(C)C)C(=O)OC)S(=O)(=O)N(CC=C)[C@@H](CC(C)C)C(=O)OC
AC50 [3]: 6.72 µM (active)
AC50 [4]: 24.7 µM (active)
AC50 [5]: 25.9 µM (active)
AC50 [6]: 21 µM (active)

SMILES: C[C@H](CO)N1C[C@H](C)[C@H](CN(C)Cc2ccc(-c3ccccc3)cc2)Oc2ccc(NS(=O)(=O)c3ccc(F)cc3)cc2CC1=O
AC50 (Paired box protein Pax-8): 27.1 µM (active)
AC50 [7]: > 70 µM (inactive)

SMILES: C[C@@H]1CCCCO[C@H](CN(C)Cc2ccc3c(c2)OCO3)[C@@H](C)CN([C@@H](C)CO)C(=O)c2cc(NS(=O)(=O)c3ccc(Cl)cc3)ccc2O1
AC50 (Paired box protein Pax-8): 9.45 µM (active)
AC50 [7]: > 70 µM (inactive)

SMILES: C/C(=N\Nc1nc2ccccc2s1)c1cccs1
EC50 (cells): > 67.5 µM (inactive)
EC50 [1]: > 67.5 µM (inactive)

More lines, now with the values ahead:

IC50 (Cysteine protease ATG4B): 11.3 µM (active)
IC50 (Phospholipase A2): 9.57 µM (active)
SMILES: COc1cc(NS(=O)(=O)c2ccc(Nc3nc(-c4cccc([N+](=O)[O-])c4)cs3)cc2)nc(OC)n1

IC50 (Genome polyprotein): 56.3 µM (active)
SMILES: CCOc1cc(/C=C2/SC(=S)N(CC(=O)O)C2=O)ccc1OC(=O)c1cccs1

AC50 (Cytochrome P450 3A4 [2]): inconclusive
SMILES: c1ccc2c(CSCCc3ccncc3)cccc2c1

IC50 [8]: 9.59 µM (active)
SMILES: O=C(N/N=C/c1ccco1)C1CC1c1ccccc1 (centres undefined)

IC50 (Cysteine protease ATG4B): 5.45 µM (active)
IC50 (Phospholipase A2): 5.12 µM (active)
SMILES: CCOC(=O)c1c(NC=C2C(=O)CC(C)(C)CC2=O)sc(C)c1C

AC50 (Cytochrome P450 2C9): inconclusive
AC50 (Cytochrome P450 2D6): 25.1 µM (inconclusive)
IC50 [9]: 108 µM (active)
AC50 (Cytochrome P450 3A4 [10]): 25.1 µM (inconclusive)
AC50 (Cytochrome P450 2C19): 25.1 µM (inconclusive)
SMILES: Cc1cc(C(=O)c2cnc(/N=C/N(C)C)s2)cc(C)c1O
